Data taken from ChEMBL document CHEMBL1133749, “Water-soluble, core-modified porphyrins as novel, longer-wavelength-absorbing sensitizers for photodynamic therapy” (J Med Chem, 2000).

Experiments:
Colon 26 [1] = test: Lethal dose required for photodynamic therapy against COLO-26 cells in culture; assay type: toxicity, cell-based
Mus musculus [2] = test: Tested in vivo for times to mm**3 tumor volume against BALB/c mice bearing COLO-26 tumors at a dose 10 mg/Kg; assay type: functional
Mus musculus [3] = test: Tested in vivo for times to mm**3 tumor volume against BALB/c mice bearing COLO-26 tumors at a dose 3.25 mg/Kg; assay type: functional
Murine T-cell line = test: Compound at >50 ug/mL was tested for photoactivity against murine T-cell line; No significant photoactivity; assay type: functional, cell-based; settings: Mus musculus
Colon 26 [4] = test: Photodynamic therapy against COLO-26 cells in culture; assay type: cell-based; settings: Mus musculus, Colon 26, light or radiation study; read-out: LD50 (the source's name)

SMILES	CC50 (Colon 26 [1]; Mus musculus, Colon 26, light or radiation study, read-out: LD50 (the source's name)) [µg/mL]	LD90 (Colon 26 [1]; mouse) [µg/mL]	Time (Mus musculus [2]) [h]	Time (Mus musculus [3]) [h]	NS (Murine T-cell line)	CC50 (Colon 26 [4]) [µg/mL]
O=S(=O)([O-])c1ccc(-c2c3nc(c(-c4ccc(S(=O)(=O)[O-])cc4)c4ccc(s4)c(-c4ccc(S(=O)(=O)[O-])cc4)c4nc(c(-c5ccc(S(=O)(=O)[O-])cc5)c5ccc2s5)C=C4)C=C3)cc1.[Na+].[Na+].[Na+].[Na+]	< 25	> 50	276	198	No significant photoactivity	–
O=S(=O)([O-])c1ccc(-c2c3nc(c(-c4ccc(S(=O)(=O)[O-])cc4)c4ccc([nH]4)c(-c4ccc(S(=O)(=O)[O-])cc4)c4ccc([nH]4)c(-c4ccc(S(=O)(=O)[O-])cc4)c4nc2C=C4)C=C3)cc1.[Na+].[Na+].[Na+].[Na+]	–	–	–	–	No significant photoactivity	> 100
